Measurements: patent US10662203B2, “Pyrido[2,3-b]indole compounds for the treatment and prophylaxis of bacterial infection” (Hoffmann-La Roche Inc., priority 2017, dated 2020)

Assays:
Assay in all cases: 50% growth inhibitory concentration (IC50) determination assay
Format in all cases: cell-based
Settings in all cases: Iso-Sensitest broth, 0.098 = detection limit
A. baumannii (ATCC17978) = tested on: A. baumannii (ATCC17978)
Procedure: (§1) Stock compounds in DMSO were serially two-fold diluted (range from 50 to 0.097 μM final concentration) in 384 wells microtiter plates and inoculated with 49 μL the bacterial suspension in Iso-Sensitest broth medium to have a final cell concentration of ˜5×10^5 CFU/mL in a final volume/well of 50 μL/well. Microtiter plates were incubated at 35±2° C. Bacterial cell growth was determined with the measurement of optical density at λ=600 nm each 20 minutes over a time course of 16 h. […] GP-6 (Example 4.131 disclosed in WO 2012/125746 A1) was used as the reference compound in Table 6-8. […] The data of IC50 over S. aureus (ATCC29213), K. pneumoniae (ATCC10031), and A. baumannii (ATCC17978) are illustrated in Table 6.

S. aureus (ATCC29213) = tested on: S. aureus (ATCC29213)
Procedure: as §1

[1] = tested on: K. pneumoniae (ATCC10031)
Procedure: as §1

[2] = Acinetobacter baumannii, ATCC17978, A. baumannii ATCC17978

Row | Compound | IC50 (A. baumannii (ATCC17978); [2]) [µM] | IC50 (S. aureus (ATCC29213); Staphylococcus aureus) [µM] | IC50 ([1]; Klebsiella pneumoniae) [µM] | IC50 (A. baumannii (ATCC17978); A. baumannii ATCC17978) [µM] | IC50 (S. aureus (ATCC29213)) [µM] | IC50 [1] [µM]
1 | CNc1c(F)c(F)cc2c1[nH]c1ncc(-c3cnc4c(c3)c(=O)c(C(=O)O)cn4C3CCNC3)c(N3CCCC3)c12 (stereo not drawn) [Example 1.76] | 0.643 | < 0.098 | < 0.098 |  |  | 
2 | CNc1cc(F)c(F)c2c1[nH]c1ncc(-c3cnc4c(c3)c(=O)c(C(=O)O)cn4C)c(N3CCC[C@H]3CO)c12 [Example 1.77] | 0.291 | < 0.098 | 0.111 |  |  | 
3 | CCC(Cn1cc(C(=O)O)c(=O)c2cc(-c3cnc4[nH]c5c(NC)cc(F)c(F)c5c4c3N3CCOCC3)cnc21)N(C)C (stereo not drawn) [Example 1.79] | 0.173 | < 0.098 | < 0.098 |  |  | 
4 | CNc1cc(F)cc2c1[nH]c1ncc(-c3cnc4c(c3)c(=O)c(C(=O)O)cn4C3CCN(C)C3)c(N3CCOCC3)c12 (stereo not drawn) [Example 1.81] | 0.164 | < 0.098 | < 0.098 |  |  | 
5 | CNc1cc(F)c(F)c2c1[nH]c1ncc(-c3cnc4c(c3)c(=O)c(C(=O)O)cn4Cc3cnco3)c(N(C)C)c12 [Example 1.87] | 0.49 | < 0.098 | 0.122 |  |  | 
6 | CNc1cc(F)c(F)c2c1[nH]c1ncc(-c3cnc4c(c3)c(=O)c(C(=O)O)cn4C3CCNC3)c(N3CCCC3)c12 (stereo not drawn) [Example 1.89] |  |  |  | 0.315 | < 0.098 | < 0.098
7 | CNc1cc(F)c(F)c2c1[nH]c1ncc(-c3cnc4c(c3)c(=O)c(C(=O)O)cn4NC3CCOCC3)c(N(C)C)c12 [Example 1.91] | 0.237 | < 0.098 | 0.165 |  |  | 
8 | CNc1cc(F)c(F)c2c1[nH]c1ncc(-c3cnc4c(c3)c(=O)c(C(=O)O)cn4C3CC3)c(N(C)C)c12 [Example 1.95] | 0.276 | < 0.098 | 0.282 |  |  | 
9 | CNc1cc(F)c(F)c2c1[nH]c1ncc(-c3cnc4c(c3)c(=O)c(C(=O)O)cn4C)c(N3CCSCC3)c12 [Example 1.97] | 0.507 | < 0.098 | 0.257 |  |  | 
10 | CNc1cc(F)cc2c1[nH]c1ncc(-c3cnc4c(c3)c(=O)c(C(=O)O)cn4C)c(N3CCC(CN(C)C4CC4)C3)c12 (stereo not drawn) [Example 1.99] | 0.771 | < 0.098 | < 0.098 |  |  | 
11 | CNc1cc(F)cc2c1[nH]c1ncc(-c3cnc4c(c3)c(=O)c(C(=O)O)cn4C)c(N3CCC(C)(CN(C)C)C3)c12 (stereo not drawn) [Example 1.102] | 0.134 | < 0.098 | < 0.098 |  |  | 
12 | CCNc1cc(F)c(F)c2c1[nH]c1ncc(-c3cnc4c(c3)c(=O)c(C(=O)O)cn4C)c(N3CCC(N(C)C)C3)c12 (stereo not drawn) [Example 1.104] | 0.137 | < 0.098 | < 0.098 |  |  | 
13 | CNc1c(F)cc(F)c2c1[nH]c1ncc(-c3cnc4c(c3)c(=O)c(C(=O)O)cn4C)c(N3CCOCC3)c12 [Example 1.105] | 0.216 | 5.22 | < 0.098 |  |  | 
14 | CNc1c(F)cc(F)c2c1[nH]c1ncc(-c3cnc4c(c3)c(=O)c(C(=O)O)cn4C3CCNC3)c(N(C)C)c12 (stereo not drawn) [Example 1.107] | 0.699 | 0.189 | < 0.098 |  |  | 
15 | CNc1cc(F)c(F)c2c1[nH]c1ncc(-c3cnc4c(c3)c(=O)c(C(=O)O)cn4C)c(N3CCC(F)(CN(C)C)C3)c12 (stereo not drawn) [Example 1.108] | 0.088 | < 0.098 | < 0.098 |  |  | 
16 | CNc1cc(F)cc2c1[nH]c1ncc(-c3cnc4c(c3)c(=O)c(C(=O)O)cn4C)c(N3CCC(F)(CN(C)C)C3)c12 (stereo not drawn) [Example 1.109] | 0.066 | < 0.098 | < 0.098 |  |  | 
17 | CNc1cc(F)cc2c1[nH]c1ncc(-c3cnc4c(c3)c(=O)c(C(=O)O)cn4C)c(N3CC4[C@@H](C3)OCCN4C)c12 (stereo partly drawn) [Example 1.112] | 0.334 | < 0.098 | < 0.098 |  |  | 

Row | Compound | IC50 (A. baumannii (ATCC17978); [2]) [µM] | IC50 (S. aureus (ATCC29213); Staphylococcus aureus) [µM] | IC50 ([1]; Klebsiella pneumoniae) [µM] | IC50 (A. baumannii (ATCC17978); A. baumannii ATCC17978) [µM] | IC50 (S. aureus (ATCC29213)) [µM] | IC50 [1] [µM]
18 | CNc1cc(F)cc2c1[nH]c1ncc(-c3cnc4c(c3)c(=O)c(C(=O)O)cn4C)c(N3CCC(NC4CC4)C3)c12 (stereo not drawn) [Example 1.114] | 0.103 | < 0.098 | < 0.098 |  |  | 
19 | CNc1cc(F)c(F)c2c1[nH]c1ncc(-c3cnc4c(c3)c(=O)c(C(=O)O)cn4C)c(N3CCC(NC4CC4)C3)c12 (stereo not drawn) [Example 1.115] | 0.049 | < 0.098 | < 0.098 |  |  | 
20 | CNc1cc(F)c(F)c2c1[nH]c1ncc(-c3cnc4c(c3)c(=O)c(C(=O)O)cn4C3CCN(C)C3)c(N(C)C)c12 (stereo not drawn) [Example 1.130] | 0.132 | < 0.098 | < 0.098 |  |  | 
21 | CNc1cc(F)cc2c1[nH]c1ncc(-c3cnc4c(c3)c(=O)c(C(=O)O)cn4C)c(N3CCC(CNC4CC4)C3)c12 (stereo not drawn) [Example 1.136] | 0.172 | < 0.098 | < 0.098 |  |  | 
22 | CNc1cc(F)c(F)c2c1[nH]c1ncc(-c3cnc4c(c3)c(=O)c(C(=O)O)cn4C)c(N3CCC(CNC4CC4)C3)c12 (stereo not drawn) [Example 1.137] | 0.151 | < 0.098 | < 0.098 |  |  | 
23 | CNc1cc(F)c(F)c2c1[nH]c1ncc(-c3cnc4c(c3)c(=O)c(C(=O)O)cn4C)c(N3CCC(CN(C)CCOC)C3)c12 (stereo not drawn) [Example 1.142] | 0.195 | < 0.098 | < 0.098 |  |  | 
24 | CNc1cc(F)c(F)c2c1[nH]c1ncc(-c3cnc4c(c3)c(=O)c(C(=O)O)cn4C)c(N3CC(CN(C)C)C(F)(F)C3)c12 (stereo not drawn) [Example 1.143] | 0.109 | < 0.098 | < 0.098 |  |  | 
25 | CNc1cc(F)c(F)c2c1[nH]c1ncc(-c3cnc4c(c3)c(=O)c(C(=O)O)cn4C(C)CCO)c(N(C)C)c12 (stereo not drawn) [Example 1.145] | 0.341 | < 0.098 | 0.202 |  |  | 
26 | CNc1cc(F)c(F)c2c1[nH]c1ncc(-c3cnc4c(c3)c(=O)c(C(=O)O)cn4CC3(O)CC3)c(N(C)C)c12 [Example 1.146] | 0.525 | < 0.098 | 0.411 |  |  | 
27 | CNc1cc(F)c(F)c2c1[nH]c1ncc(-c3cnc4c(c3)c(=O)c(C(=O)O)cn4[C@@H]3CCNC3)c(N(C)C)c12 [Example 1.155] | 0.328 | 3.8 | < 0.098 |  |  | 
28 | CNc1cc(F)c(F)c2c1[nH]c1ncc(-c3cnc4c(c3)c(=O)c(C(=O)O)cn4[C@@H]3CCNC3)c(N3CCCC3)c12 [Example 1.156] | 0.478 | < 0.098 | < 0.098 |  |  | 
29 | CNc1cc(F)c(F)c2c1[nH]c1ncc(-c3cnc4c(c3)c(=O)c(C(=O)O)cn4C)c(N3C[C@H](C)[C@@H](N(C)C)C3)c12 [Example 1.167] |  |  |  | 0.143 | < 0.098 | < 0.098
30 | CNc1cc(F)c(F)c2c1[nH]c1ncc(-c3cnc4c(c3)c(=O)c(C(=O)O)cn4C)c(N3C[C@H](F)[C@@H](N(C)C)C3)c12 [Example 1.168] |  | < 0.098 | < 0.098 | 0.287 |  | 
31 | CNc1cc(F)cc2c1[nH]c1ncc(-c3cnc4c(c3)c(=O)c(C(=O)O)cn4C)c(N3C[C@H](F)[C@@H](N(C)C)C3)c12 [Example 1.169] | 0.229 | < 0.098 | < 0.098 |  |  | 
32 | CNc1cc(F)c(F)c2c1[nH]c1ncc(-c3cnc4c(c3)c(=O)c(C(=O)O)cn4C)c(N3CC[C@@H](CN4CCOCC4)C3)c12 [Example 1.174] | 0.784 | < 0.098 | 0.224 |  |  | 
33 | CNc1cc(F)c(F)c2c1[nH]c1ncc(-c3cnc4c(c3)c(=O)c(C(=O)O)cn4CC(C)(C)N(C)C)c(N(C)C)c12 [Example 1.178] | 0.235 | < 0.098 | < 0.098 |  |  | 
34 | CNc1cc(F)c(F)c2c1[nH]c1ncc(-c3cnc4c(c3)c(=O)c(C(=O)O)cn4N(C)C)c(N3CCOCC3)c12 [Example 1.180] | 0.353 | < 0.098 | 0.112 |  |  | 
